In series [1] the target is α1-receptors ([3H]prazosin). The series is described as follows: [3H]Prazosin binding (α1-receptors), rat cerebral cortices. The following applies: rat cerebral cortex, 0.35 nM [3H]prazosin, 25° C., 30 min; read-out: [3H] prazosine IC50. As to the method:
Rat cerebral cortices were homogenized in 50 volumes of original wet weight of ice-cold 50 mM Tris-HCl buffer pH 7.4. The homogenates were centrifuged at 48,000 × g for 10 minutes, and the pellets were resuspended in the same volume of ice-cold buffer, centrifuged and resuspended two more times. […] The incubations were terminated by rapid filtration through Whatman GF/B, filters using a Brandel cell harvester and the filters were washed with 3×3 ml of ice-cold buffer. The radioactivity retained on the filters was determined by liquid scintillation counting. Data analysis The inhibition of specific binding of the radioligands by the tested drugs was analyzed to estimate the IC50 value by using the non-linear curve-fitting program Allfit [A. De Lean et al., Am. J. Physiol.

In series [2] the target is T1, cloned α1A adrenoceptor (Bos taurus, UniProt P18130).
T1 construct: expressed in transfected cells; host or cells: COS-7 (transient)
T1 sequence (P18130 1-466): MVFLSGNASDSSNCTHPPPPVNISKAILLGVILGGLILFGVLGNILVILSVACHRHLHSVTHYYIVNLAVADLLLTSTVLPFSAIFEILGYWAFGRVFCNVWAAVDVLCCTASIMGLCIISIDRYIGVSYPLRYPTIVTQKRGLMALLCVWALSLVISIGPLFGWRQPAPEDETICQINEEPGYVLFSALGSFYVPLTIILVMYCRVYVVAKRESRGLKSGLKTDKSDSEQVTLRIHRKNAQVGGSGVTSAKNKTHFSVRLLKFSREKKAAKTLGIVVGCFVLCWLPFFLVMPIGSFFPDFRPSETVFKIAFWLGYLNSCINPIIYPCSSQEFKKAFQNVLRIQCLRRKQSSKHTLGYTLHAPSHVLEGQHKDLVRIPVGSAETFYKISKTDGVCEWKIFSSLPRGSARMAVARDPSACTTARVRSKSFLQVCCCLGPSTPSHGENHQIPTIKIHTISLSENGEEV
The series is described as follows: Radioligand binding, cloned α1A adrenoceptor (previously α1C) expressed in COS-7 cells. The following applies: bovine brain α1A in COS-7 cells; mean of 2-4 experiments in triplicate, agreed within 10%. As to the method:
(§1) Cloned animal α1 adrenoceptors
(§2) COS-7 cells were grown as monolayers in Dulbecco's modified Eagle's medium (DMEM), supplemented with 25 mM glucose, 10% bovine calf serum, 100 units/ml penicillin and 100 μg/ml streptomicyn sulfate.
(§3) Transfected cells from colture flask were washed two times with 5 ml phosphate buffered saline (PBS), scraped into 2 ml of 5 mM Tris-HCl, pH 7.4, containing 5 mM EDTA and 10 μM leupeptin, and lysed by sonication. The cell lysates were pelleted at 30000xg for 15 min at 4° C. and washed three times with 10 ml ice-cold 50 mM Tris-HCl, pH 7.4. Membranes were resuspended in 50 mM Tris-HCl, pH 7.4, containing 10 μM pargyline and 0.1% ascorbic acid, quickly frozen and stored at -70° C. until utilized.
(§4) Radioligand binding assays
Non-specific binding was determined in presence of 100 μM phentolamine. The reaction mixture was incubated for 30 min at 25° C. and then stopped by the addition of ice cold Tris-HCl buffer and rapid filtration through 0.2% polyethyleneimine pretreated Whatman GF/B fiber filters using Brandel cell harvester. The filters were then washed with 3×3 ml of ice-cold buffer and the radioactivity retained on the filters was counted in 10 ml of Filter Count (Packard) in a liquid scintillation spectrometer with a counting efficacy of 40%.
The inhibition of specific binding of the radioligands by the tested drugs was analyzed to estimate the IC50 value by using the non-linear curve-fitting program Allfit [A. De Lean et al., Am. J. Physiol.

For series [3], the target named is T2, cloned α1B adrenoceptor (Mesocricetus auratus, UniProt P18841).
T2 sequence (P18841 1-515): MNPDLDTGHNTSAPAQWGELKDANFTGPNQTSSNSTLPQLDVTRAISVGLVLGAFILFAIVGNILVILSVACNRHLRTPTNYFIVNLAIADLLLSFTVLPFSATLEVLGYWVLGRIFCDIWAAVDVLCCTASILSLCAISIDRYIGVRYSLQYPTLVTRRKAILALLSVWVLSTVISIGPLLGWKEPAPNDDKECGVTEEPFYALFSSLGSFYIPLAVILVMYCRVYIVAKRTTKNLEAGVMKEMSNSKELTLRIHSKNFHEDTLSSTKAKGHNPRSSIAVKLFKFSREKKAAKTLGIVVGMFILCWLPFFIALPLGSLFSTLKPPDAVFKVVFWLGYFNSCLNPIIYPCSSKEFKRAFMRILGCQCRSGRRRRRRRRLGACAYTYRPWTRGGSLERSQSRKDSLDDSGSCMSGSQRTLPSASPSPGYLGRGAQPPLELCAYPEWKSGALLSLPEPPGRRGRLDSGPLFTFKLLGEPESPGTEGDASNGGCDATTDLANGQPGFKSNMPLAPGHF
The series is described as follows: biochemical. Conditions: syrian hamster α1B in COS-7 cells; mean of 2-4 experiments in triplicate, agreed within 10%. It counts as binding. The procedure: as §1, §2, §3, §4
(§5) Non-specific binding was determined in presence of 100 μM phentolamine. […] The filters were then washed with 3×3 ml of ice-cold buffer and the radioactivity retained on the filters was counted in 10 ml of Filter Count (Packard) in a liquid scintillation spectrometer with a counting efficacy of 40%.
(§6) The inhibition of specific binding of the radioligands by the tested drugs was analyzed to estimate the IC50 value by using the non-linear curve-fitting program Allfit [A. De Lean et al., Am. […]

Series [4] has as its target T3, cloned α1D adrenoceptor (Rattus norvegicus, UniProt P23944).
T3 construct: expressed in transfected cells; host or cells: COS-7 (transient)
T3 sequence (P23944 1-561): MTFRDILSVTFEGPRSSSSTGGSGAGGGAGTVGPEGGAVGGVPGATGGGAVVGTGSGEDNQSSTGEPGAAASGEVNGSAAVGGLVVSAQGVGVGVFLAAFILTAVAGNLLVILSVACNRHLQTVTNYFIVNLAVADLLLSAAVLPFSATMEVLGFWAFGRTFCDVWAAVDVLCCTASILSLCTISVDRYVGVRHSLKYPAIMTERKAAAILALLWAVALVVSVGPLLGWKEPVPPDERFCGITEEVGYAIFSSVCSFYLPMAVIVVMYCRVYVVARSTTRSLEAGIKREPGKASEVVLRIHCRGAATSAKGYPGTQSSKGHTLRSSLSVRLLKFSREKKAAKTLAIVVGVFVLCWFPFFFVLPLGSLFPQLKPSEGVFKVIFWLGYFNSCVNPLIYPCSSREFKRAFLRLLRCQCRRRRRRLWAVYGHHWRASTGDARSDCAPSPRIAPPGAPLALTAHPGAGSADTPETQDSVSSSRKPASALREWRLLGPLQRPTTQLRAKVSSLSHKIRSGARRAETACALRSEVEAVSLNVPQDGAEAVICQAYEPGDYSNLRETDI
The series is described as follows: Radioligand binding, cloned α1D adrenoceptor (previously α1A/D) expressed in COS-7 cells. Conditions: rat brain α1D in COS-7 cells; mean of 2-4 experiments in triplicate, agreed within 10%. As to the method: as §1, §2, §3, §4, §5, §6

Series [5] can be described thus: in vivo. Conditions: mouse, mice, mortality 7 days after administration. As to the method:
20-30 g b.w., were obtained from Charles River, Italy. Animals were housed with free access to food and water and maintained on forced light-dark cycle at 22°-24° C. until the day of experiments.
The acute toxicity of synthesized compounds was evaluated in female Albino Swiss mice after intraperitoneal and oral administration. Four logarithmic scaled doses of the compounds were dissolved or suspended in 0.5% Methocel and administered in a volume of 10 ml/kg to groups of 4 mice/dose. Mortality was recorded 7 days after the administration.

SMILES strings stand for the structures. Where a name gives a salt, the structure may show the parent alone. Read-outs that look alike come from different tables or passages of the source.

Regarding `COc1ccc(CC2c3cc(OC)c(OC)cc3CCN2c2nc(N)c3cc(OC)c(OC)cc3n2)cc1OC` (stereo not drawn) [Example 33, 4-Amino-6,7-dimethoxy-2-[1-(3,4-dimethoxybenzyl)-6,7-dimethoxy-1,2,3,4-tetrahydroisoguinolin-2-yl]-quinazoline hydrochloride hydrate], the half-inhibitory concentration (IC50) in series [1] was determined as 287 nM; in series [2], 950 nM; in series [3], 206 nM; in series [4], 1550 nM. The LD50 at 168 h is 884 mg/kg in series [5] (ip, intraperitoneal, read-out: DL50 i.p.) and more than 3000 mg/kg in series [5] (oral, read-out: DL50 p.o.).

In general, IC50 refers to the concentration at which inhibition is half-maximal.

Values taken from US5798362A, “Quinazolinyl-amino derivatives having α-antagonist activity” (Recordati S.A. Chemical and Pharmaceutical Company, priority 1994, dated 1998).
